Laboratory results reported in paper PMC9250534, “Synthesis and direct assay of large macrocycle diversities by combinatorial late-stage modification at picomole scale” (Nature Communications, 2022).
One block for each molecule: values may come before it. Numbered stars: 1 amine (or outer) side, 2 acyl side, 3 side chain; on linkers, the order of the positions; unused ones are H or OH. Bridge positions count the residues as written; N and C are the ends. Square brackets hold non-standard residues; d marks the D form. Peptide text beside a SMILES is read from it. * marks the point of attachment. ξ: configuration not given here. ξPro(4-NHCO(5-Cl-2-thienyl)) = O=C(NC1CNC(C(=O)O)C1)c1ccc(Cl)s1; 2Thenoyl(5-Cl) = O=C(c1ccc(Cl)s1)*; Cysteamide = C(CS[*:3])N[*:1]; 3Amb = NCc1cccc(C(=O)O)c1; Orn = NCCC[CH](N)C(=O)O; Api = NC1(C(=O)O)CCNCC1; βAla = NCCC(=O)O; Mpa = O=C(O)CCS

Target: T1, thrombin (Homo sapiens, UniProt P00734)
T1 construct: consists of two polypeptide chains of 36 (light chain) and 259 amino acid
Test: Thrombin inhibition screen of crude macrocycle reactions (residual thrombin activity, fluorogenic substrate Z-Gly-Gly-Arg-AMC)
Type: biochemical
Details: 10 µM macrocycle concentration; for % thrombin activity, Original screen / % thrombin activity, Repeat screen: macrocycles containing acid 14, crude reaction; for % thrombin activity, Repeat screen: replicate reaction and screen; for percent residual thrombin activity: crude reactions, Library 1a-l, scaffold AA1-AA2-AA3 combined with 1-16 or '-'
Procedure, shortened: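 Each crude macrocycle (10 μM) was preincubated 10 min at room temperature with thrombin (2 nM final) in Tris-Cl pH 7.4 containing NaCl, MgCl2, CaCl2, 0.1% BSA, 0.01% Triton X-100 and 0.6% DMSO. Z-Gly-Gly-Arg-AMC (50 μM final) was then added. Inhibition came from fluorescence slopes relative to DMSO-only controls.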

SMILES: CC[C@H](C)[C@@H]1NC(=O)[C@H](CCCNC(=O)c2ccco2)NC(=O)c2cccc(c2)CNC(=O)CCSSCCNC1=O [B5-D2-I/16]
percent residual thrombin activity: 105.125%

SMILES: CC(C)[C@H]1NC(=O)C2(CCN(C(=O)c3ccc(Cl)s3)CC2)NC(=O)CCSSCCNC(=O)c2cccc(c2)CNC1=O [X D6 v B5]
% thrombin activity, Original screen: 84.9% | % thrombin activity, Original screen (listed as X D6 V B5): 98.9% | % thrombin activity, Repeat screen: 90.5% | % thrombin activity, Repeat screen (listed as X D6 V B5): 103.9%

SMILES: O=C1CCSSCCNC(=O)[C@@H](Cc2ccc(O)cc2)NC(=O)CCNC(=O)[C@H](CCCCNC(=O)c2c[nH]c(=O)cn2)N1 [D1-B2-y/9]
percent residual thrombin activity: 109.951%

SMILES: Cc1cc(C(=O)NCCC[C@@H]2NC(=O)CCSSCCNC(=O)[C@H](Cc3cnc[nH]3)NC(=O)c3cccc(c3)CNC2=O)no1 [D2-B5-H/3]
percent residual thrombin activity: 99.7053%

SMILES: O=C1CCNC(=O)[C@@H](NC(=O)c2ccc(Cl)s2)CSSCCNC(=O)[C@@H](CO)NC(=O)CN1 [C B2 G s]
% thrombin activity, Original screen: 112.4% | % thrombin activity, Repeat screen: 112.3%

SMILES: CC(C)C[C@@H]1NC(=O)C2(CC2)CNC(=O)CNC(=O)[C@@H](NC(=O)c2ccc(Cl)s2)CSSCCNC1=O [C G B6 L]
% thrombin activity, Original screen: 109.3% | % thrombin activity, Repeat screen: 114.8%

SMILES: NC(=O)CC[C@@H]1NC(=O)C2(CCN(C(=O)c3ccc(Cl)s3)CC2)NC(=O)c2cccc(c2)CNC(=O)CCSSCCNC1=O [X B5 D6 Q]
% thrombin activity, Original screen: 54.9% | % thrombin activity, Repeat screen: 55.7%

SMILES: C[C@H]1NC(=O)CCSSCCNC(=O)c2cccc(c2)CNC(=O)[C@H](CCCCN)NC1=O [a-D1-B5/-] ([Mpa][dA]K[3Amb]-Cysteamide; disulfide 1-C)
percent residual thrombin activity: 108.99%

SMILES: CC1NC(=O)c2ccc(cc2)CNC(=O)C2(CCN(C(=O)c3ccc(Cl)s3)CC2)NC(=O)CCSSCCNC1=O (centres unmarked) [X D6 B3 a]
% thrombin activity, Original screen: 92.0% | % thrombin activity, Repeat screen: 95.8%

SMILES: CC(C)C[C@@H]1NC(=O)CCNC(=O)CCSSCCNC(=O)[C@H](CCCN)NC1=O [B2-L-D2/-] ([Mpa][βAla]L[Orn]-Cysteamide; disulfide 1-C)
percent residual thrombin activity: 113.32%

SMILES: COc1ccc(C(=O)NCCC[C@@H]2NC(=O)C3(CC3)CNC(=O)CCSSCCNC(=O)[C@H](Cc3ccc(O)cc3)NC2=O)cn1 [B6-D2-Y/10]
percent residual thrombin activity: 102.307%

SMILES: O=C1CCSSCCNC(=O)[C@@H](CNC(=O)c2ccc(Cl)s2)NC(=O)c2cccc(c2)CNC(=O)[C@H](Cc2c[nH]c3ccccc23)N1 [X W B5 D4]
% thrombin activity, Original screen: 103.8% | % thrombin activity, Repeat screen: 106.8%

SMILES: O=C1CNC(=O)c2ccc(cc2)CNC(=O)[C@@H](NC(=O)c2ccc(Cl)s2)CSSCCNC(=O)[C@H](Cc2cnc[nH]2)N1 [C B3 G H]
% thrombin activity, Original screen: 103.1% | % thrombin activity, Repeat screen: 116.7%

SMILES: O=C1NC2(CCN(C(=O)c3ccc(Cl)s3)CC2)C(=O)NCCSSCCC(=O)N2CCCC2C(=O)NC1Cc1c[nH]c2ccccc12 (centres unmarked) [X B1 w D6] ([Mpa]PW[Api](2Thenoyl(5-Cl))-Cysteamide; disulfide 1-C; configuration not given here)
% thrombin activity, Original screen: 94.1% | % thrombin activity, Repeat screen: 97.2%

SMILES: O=C1CCSSCCNC(=O)[C@H]2CCCN(C2)C(=O)[C@H](Cc2c[nH]c3ccccc23)NC(=O)C2(CCN(C(=O)c3ccc(Cl)s3)CC2)N1 [X D6 W B4]
% thrombin activity, Original screen: 95.3% | % thrombin activity, Repeat screen: 101.4%

Further lines, results first:

% thrombin activity, Original screen: 103.7% | % thrombin activity, Repeat screen: 108.0%
SMILES: O=C(NCCCC[C@@H]1NC(=O)[C@@H]2CCCN2C(=O)CCSSCCNC(=O)[C@@H](Cc2ccc(O)cc2)NC1=O)c1ccc(Cl)s1 [X B1 D1 y] ([Mpa]PK(2Thenoyl(5-Cl))[dY]-Cysteamide; disulfide 1-C)

% thrombin activity, Original screen: 104.4% | % thrombin activity, Repeat screen: 109.7%
SMILES: CC[C@H](C)[C@@H]1NC(=O)CCNC(=O)C2(CCN(C(=O)c3ccc(Cl)s3)CC2)NC(=O)CCSSCCNC1=O [X D6 B2 I]

percent residual thrombin activity: 107.636%
SMILES: CC(C)C[C@@H]1NC(=O)CCSSCCNC(=O)[C@H](CCCCNC(=O)c2cnccn2)NC(=O)C2(CC2)CNC1=O [L-B6-D1/2]

% thrombin activity, Original screen: 96.9% | % thrombin activity, Repeat screen: 99.9%
SMILES: O=C(NCCCCC1NC(=O)C2CCCN(C2)C(=O)CCSSCCNC(=O)C(CO)NC1=O)c1ccc(Cl)s1 (centres unmarked) [X B4 D1 S]

% thrombin activity, Original screen: 97.7% | % thrombin activity, Repeat screen: 98.7%
SMILES: CC1NC(=O)CCSSCCNC(=O)C2CCCN(C2)C(=O)C(CNC(=O)c2ccc(Cl)s2)NC1=O (centres unmarked) [X a D3 B4]

% thrombin activity, Original screen: 78.9% | % thrombin activity, Repeat screen: 71.1%
SMILES: O=C1CCSSCCNC(=O)C(Cc2c[nH]cn2)NC(=O)CCNC(=O)C(CNC(=O)c2ccc(Cl)s2)N1 (centres unmarked) [X D3 B2 H]

percent residual thrombin activity: 108.059%
SMILES: CC(C)CC(=O)NCCCC[C@@H]1NC(=O)[C@H](Cc2ccccc2)NC(=O)CCSSCCNC(=O)[C@H]2CCCN(C2)C1=O [F-D1-B4/8]

percent residual thrombin activity: 105.489%
SMILES: CC(C)C[C@@H]1NC(=O)CCSSCCNC(=O)[C@H](CCCNC(=O)Cc2c[nH]c3ccccc23)NC(=O)[C@H]2CCCN(C2)C1=O [L-B4-D2/12]

percent residual thrombin activity: 108.83%
SMILES: CC(C)[C@H]1NC(=O)c2cccc(c2)CNC(=O)[C@H](CCCNC(=O)c2c[nH]c(=O)[nH]c2=O)NC(=O)CCSSCCNC1=O [D2-B5-v/11]

% thrombin activity, Original screen: 113.1% | % thrombin activity, Repeat screen: 119.4%
SMILES: O=C1CCSSCCNC(=O)C2CCCN2C(=O)C2CC(NC(=O)c3ccc(Cl)s3)CN2C(=O)C(Cc2c[nH]c3ccccc23)N1 (centres unmarked) [X W D5 B1] ([Mpa]W[ξPro(4-NHCO(5-Cl-2-thienyl))]P-Cysteamide; disulfide 1-C; configuration not given here)

percent residual thrombin activity: 109.579%
SMILES: O=C1CCSSCCNC(=O)[C@@H](Cc2ccccc2)NC(=O)[C@H]2CCCN(C2)C(=O)[C@H](CCCNC(=O)c2c[nH]c(=O)cn2)N1 [D2-B4-f/9]

percent residual thrombin activity: 97.5215%
SMILES: CC(C)[C@@H]1NC(=O)CCSSCCNC(=O)[C@@H]2CCCN2C(=O)[C@H](CCCCNC(=O)c2ccc(Cl)s2)NC1=O [v-D1-B1/14] ([Mpa]VK(2Thenoyl(5-Cl))P-Cysteamide; disulfide 1-C)

% thrombin activity, Original screen: 109.6% | % thrombin activity, Repeat screen: 115.2%
SMILES: O=C1CCSSCCNC(=O)C2CCCN(C2)C(=O)C2CC(NC(=O)c3ccc(Cl)s3)CN2C(=O)C(Cc2ccc(O)cc2)N1 (centres unmarked) [X y D5 B4]

percent residual thrombin activity: 113.295%
SMILES: CC[C@H](C)[C@@H]1NC(=O)[C@H](CCCNC(=O)c2cnccn2)NC(=O)CCSSCCNC(=O)CCNC1=O [D2-I-B2/2]

% thrombin activity, Original screen: 92.6% | % thrombin activity, Repeat screen: 89.5%
SMILES: NC(=O)CCC1NC(=O)C2CCCN2C(=O)CCSSCCNC(=O)C(CCCNC(=O)c2ccc(Cl)s2)NC1=O (centres unmarked) [X B1 Q D2] ([Mpa]PQ[Orn](2Thenoyl(5-Cl))-Cysteamide; disulfide 1-C; configuration not given here)

% thrombin activity, Original screen: 96.4% | % thrombin activity, Repeat screen: 103.7%
SMILES: C[C@H]1NC(=O)[C@@H]2CCCN2C(=O)[C@H](CCCCNC(=O)c2ccc(Cl)s2)NC(=O)CCSSCCNC1=O [X D1 B1 a] ([Mpa]K(2Thenoyl(5-Cl))P[dA]-Cysteamide; disulfide 1-C)

% thrombin activity, Original screen: 97.0% | % thrombin activity, Repeat screen: 93.7%
SMILES: CC(C)C[C@@H]1NC(=O)[C@H]2CCCN(C2)C(=O)CCSSCCNC(=O)[C@@H](CNC(=O)c2ccc(Cl)s2)NC1=O [X B4 L D4]
